Data from US20170348376A1, “TUBULYSIN CONJUGATE FOR USE IN TREATING CANCER” (ENDOCYTE, INC., priority 2016, published 2017).
Where a name gives a salt, the structure may show the parent alone.

Assays:
[1] = system: primary human NSCLC model LU1147 tumors; assay: Antitumor activity in Huprime NSCLC PDX tumor model LU1147; assay type: in vivo, Balb/c nu/nu mice; settings: Docetaxel 15 mg/kg, one dose
Protocol: (§1) These studies were performed at Crown Bioscience (Beijing) Inc., Ground Floor, Light Muller Building, Changping Sector of Zhongguancun Scientific Park, No. 21 Huoju Road, Changping District, Beijing, P.R. China.

[2] = system: primary human NSCLC model LU2505 tumors; assay: Antitumor activity in Huprime NSCLC PDX tumor model LU2505; assay type: in vivo, Balb/c nu/nu mice; settings: Docetaxel 15 mg/kg, one dose
Protocol: as §1

[3] = system: primary human TNBC model ST738 tumors; assay: Antitumor activity in TNBC ST738 model; assay type: in vivo, Balb/c nu/nu mice; settings: Eribulin mesylate 1 mg/kg, once a week for two weeks (SIW×2); n=7
Protocol: (§2) These materials were obtained from and studies were performed at South Texas Accelerated Research Therapeutics, 4383 Medical Drive, San Antonio, Tex. 78229

[4] = system: primary human TNBC model ST502 tumors; assay: Antitumor activity in TNBC ST502 model; assay type: in vivo, Balb/c nu/nu mice; settings: Eribulin mesylate 1 mg/kg, once a week for two weeks (SIW×2); n=7
Protocol: as §2

[5] = system: primary human Ovarian model ST024 tumors; assay: Antitumor activity in Ovarian ST024 model; assay type: in vivo, Balb/c nu/nu mice; settings: Paclitaxel 15 mg/kg, once a week for two weeks (SIW×2); n=7
[6] = system: primary human Endometrial model ST040 tumors; assay: Antitumor activity in Endometrial ST040 model; assay type: in vivo, Balb/c nu/nu mice; settings: Paclitaxel 15 mg/kg, once a week for two weeks (SIW×2); n=3
[7] = system: FR-positive paclitaxel resistant KB-PR10 tumors; assay: Antitumor activity on paclitaxel resistant KB-PR10 tumors; assay type: in vivo, nu/nu mice; settings: paclitaxel 20 mg/kg, three times a week for two weeks (TIW×2), i.v.
Protocol: Four to six week-old female nu/nu mice (Harlan Sprague Dawley, Inc., Indianapolis, Ind.) were maintained on a standard 12 h light-dark cycle and fed ad libitum with folate-deficient chow (Harlan diet #TD00434, Harlan Teklad, Madison, Wis.) for the duration of the experiment. FR-positive paclitaxel resistant KB-PR10 cells were grown continuously as a monolayer, using folate-free RPMI medium (FFRPMI) containing 5% heat-inactivated fetal calf serum (HIFCS) at 37° C. in a 5% CO2/95% air-humidified atmosphere with no antibiotics. KB-PR10 cells (1×10^6 per nu/nu mouse) in 100 μL were injected in the subcutis of the dorsal medial area. […] Mice were treated with 20 mg/kg Paclitaxel, 2 μmol/kg EC145 (See WO2004/069159 for a description of EC145) or 1 μmol/kg Compound I on a three times a week for 2 weeks schedule when the tumors were approximately 100-145 mm^3, 101-129 mm^3 and 100-140 mm^3 in volume, respectively. The mice in the control groups received no treatment.

Which anti-tumor activity [1] does the source give for CC(=O)O[C@@]12CO[C@@H]1C[C@H](O)[C@@]1(C)C(=O)[C@H](O)C3=C(C)[C@@H](OC(=O)[C@H](O)[C@@H](NC(=O)OC(C)(C)C)c4ccccc4)C[C@@](O)([C@@H](OC(=O)c4ccccc4)[C@H]21)C3(C)C [Docetaxel] here?
The anti-tumor activity was “minimal anti-tumor activity”.

And the anti-tumor activity [2]?
Its anti-tumor activity is “some anti-tumor activity”.

For C=C1C[C@@H]2CC[C@@]34C[C@H]5O[C@H]6[C@@H](O3)[C@H]3O[C@H](CC[C@@H]3O[C@H]6[C@H]5O4)CC(=O)C[C@@H]3[C@@H](OC)[C@@H](C[C@H](O)CN)O[C@H]3C[C@H]3O[C@@H](CC[C@@H]1O2)C[C@@H](C)C3=C [Eribulin mesylate], which anti-tumor activity [3] is on record?
Its anti-tumor activity is “some anti-tumor activity”.

What about the anti-tumor activity [4] of the same molecule?
The anti-tumor activity was “minimal anti-tumor activity”.

Which anti-tumor activity [5] does the source give for CC(=O)O[C@H]1C(=O)[C@@]2(C)[C@H]([C@H](OC(=O)c3ccccc3)[C@]3(O)C[C@H](OC(=O)[C@H](O)[C@@H](NC(=O)c4ccccc4)c4ccccc4)C(C)=C1C3(C)C)[C@]1(OC(C)=O)CO[C@@H]1C[C@@H]2O [Paclitaxel] here?
The anti-tumor activity was “no anti-tumor activity”.

What about the anti-tumor activity [6] of the same molecule?
Its anti-tumor activity is “minimal anti-tumor activity”.

And the anti-tumor activity [7]?
The anti-tumor activity was “little to no anti-tumor activity”.

And the partial responses [7]?
The partial responses was 0.
